Measured values taken from patent US20240247080A1, “GLP1/GIP/NPY2 RECEPTOR TRIPLE AGONISTS” (Boehringer Ingelheim International GmbH, priority 2022, published 2024).
Read-outs that look alike come from different tables or passages of the source.

Key:
[1] = Effect on acute food intake in normal NMRI mice; type: in vivo; conditions: 30 nmol/kg subcutaneously once, normalized to vehicle group, male NMRI mice
Description: Example 4: Effect on Acute Food Intake in Normal NMRI Mice
Male NMRI mice were obtained from Janvier (Janvier Labs, France) or from Charles River (Charles River Research Models & Services Germany GmbH) at the age of 3 weeks. The animals get a microchip (Datamars, Slim Microchip T-SL) for individual identification after delivery. They were housed with 4 mice per cage under a 12/12 dark-light cycle, light off at 3 p.m. Room temperature was controlled to 21° C. +/−1° C. and humidity 60%+/−20%. Mice had ad libitum access to regular rodent chow (KLIBA Nafag 3040 or Altromin 1324, Brogaarden, Denmark) and tap water.
Latest transfer into the HM2-System of MBRose, Denmark (real-time monitoring system of food- and water intake) of the animals 5 days before study start, to allow acclimatization to experimental conditions. As the animals were uniquely identified with the microchips, each individual animal was identified by its own microchip upon entry and exit from the food channel via antennae. Randomization of the mice for each study group (n=8; age earliest 6 weeks old) was based on food intake (middle of last three days 24 h-Intervall) and bodyweight directly before start of the study. A vehicle treated (50 mM phosphate buffer pH7.4 with 3.5% Mannitol) group was included in each experiment. To have the same nutrition standard for each animal the food access was locked eight hours before dark phase. One hour before night, the animals were once treated subcutaneously with the test peptide. Food intake was reported hourly for a period of 24 h.

[2] = biological target: T1, hGLP1R (Homo sapiens, UniProt P43220); assay: hGLP1R CreLuc reporter gene assay in 0.5% and 100% plasma; type: cell-based; conditions: CreLuc reporter gene assay
T1 construct: expressed in transfected cells; host or cells: HEK-293 cells carrying a CRE-luciferase reporter gene
In short: (§1)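 HEK-293 cells co-expressing GLP-1 or NPY2 receptor and CHO cells expressing GIP receptor, each carrying a CRE-driven luciferase reporter, were stimulated with peptides for 4 hours at 37 °C. Luminescence was read after Bright-Glo addition. EC50 came from 8-point, four-decade curves fitted by variable-slope non-linear regression.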

[3] = biological target: T2, hGIPR (Homo sapiens, UniProt P48546); assay: hGIPR CreLuc reporter gene assay in 0.5% and 100% plasma; type: cell-based; conditions: CreLuc reporter gene assay
T2 construct: expressed in transfected cells; host or cells: CHO cells carrying a CRE-luciferase reporter gene
T2 sequence (P48546 22-466): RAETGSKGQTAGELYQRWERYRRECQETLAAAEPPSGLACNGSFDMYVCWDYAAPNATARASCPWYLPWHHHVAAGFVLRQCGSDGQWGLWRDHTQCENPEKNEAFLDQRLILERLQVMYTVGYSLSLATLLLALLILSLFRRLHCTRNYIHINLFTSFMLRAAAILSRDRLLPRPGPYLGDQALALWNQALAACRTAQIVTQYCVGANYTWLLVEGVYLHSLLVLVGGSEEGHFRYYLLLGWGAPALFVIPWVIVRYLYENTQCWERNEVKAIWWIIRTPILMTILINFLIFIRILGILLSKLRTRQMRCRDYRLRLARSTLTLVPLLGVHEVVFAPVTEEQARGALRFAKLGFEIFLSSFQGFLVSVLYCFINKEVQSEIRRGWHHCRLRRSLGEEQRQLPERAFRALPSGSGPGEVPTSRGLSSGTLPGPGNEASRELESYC
In short: as §1

[4] = biological target: T3, hNPY2R (Homo sapiens, UniProt P49146); assay: hNPY2R CreLuc reporter gene assay in 0.5% and 100% plasma; type: cell-based; conditions: CreLuc reporter gene assay
T3 construct: expressed in transfected cells; host or cells: HEK-293 cells carrying a CRE-luciferase reporter gene
T3 sequence (P49146 1-381): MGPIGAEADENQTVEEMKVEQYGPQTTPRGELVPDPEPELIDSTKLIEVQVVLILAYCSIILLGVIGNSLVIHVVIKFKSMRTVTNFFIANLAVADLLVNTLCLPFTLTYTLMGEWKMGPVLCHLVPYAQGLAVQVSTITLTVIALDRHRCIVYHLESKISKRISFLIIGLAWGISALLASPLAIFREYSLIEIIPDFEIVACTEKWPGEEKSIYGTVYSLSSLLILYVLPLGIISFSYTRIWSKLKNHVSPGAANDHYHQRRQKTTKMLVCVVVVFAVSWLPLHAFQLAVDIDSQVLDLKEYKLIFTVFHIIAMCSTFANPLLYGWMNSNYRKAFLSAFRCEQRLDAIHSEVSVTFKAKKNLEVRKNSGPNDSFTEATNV
In short: as §1

[5] = Mouse PK after intravenous application; type: in vivo; conditions: plasma, mean residence time, intravenous 30-60 nmol/kg, male NMRI mice
In short: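 Male NMRI mice (30–40 g) received 30-60 nmol/kg peptide by tail-vein injection, dissolved in 50 mM phosphate buffer (pH 7.4)/3.5% mannitol. Saphenous blood was sampled up to 56 hours post-dose and EDTA plasma analysed by LC-MS. PK parameters came from non-compartmental analysis.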

[6] = 0.5% human plasma, read-out: hGLP1R 0.5% hP
[7] = 0.5% human plasma, read-out: hGIPR 0.5% hP
[8] = 0.5% human plasma, read-out: hNPY2R 0.5% hP
[9] = 100% human plasma, read-out: hNPY2R 100% hP
[10] = 100% human plasma, read-out: hGIPR 100% hP

T1 sequence (P43220 24-463): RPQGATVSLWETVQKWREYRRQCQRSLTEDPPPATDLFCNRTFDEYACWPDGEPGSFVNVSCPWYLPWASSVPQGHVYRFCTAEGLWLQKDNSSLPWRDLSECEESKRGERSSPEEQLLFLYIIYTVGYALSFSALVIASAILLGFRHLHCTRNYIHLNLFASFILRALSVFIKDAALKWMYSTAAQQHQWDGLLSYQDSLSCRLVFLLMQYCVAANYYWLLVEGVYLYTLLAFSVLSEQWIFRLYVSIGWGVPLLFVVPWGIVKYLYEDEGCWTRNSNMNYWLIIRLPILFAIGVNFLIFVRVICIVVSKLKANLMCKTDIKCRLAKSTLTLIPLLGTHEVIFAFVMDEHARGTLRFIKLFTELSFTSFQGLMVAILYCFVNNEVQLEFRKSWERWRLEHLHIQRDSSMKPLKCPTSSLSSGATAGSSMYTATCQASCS

EC50 [2, 6] [nM] | EC50 [3, 7] [nM] | EC50 [4, 8] [nM] | EC50 [4, 9] [nM] | MRT [5] [h] | EC50 ([2]; 100% human plasma, read-out: hGLP1R 100% hP) [nM] | EC50 [3, 10] [nM] | Compound | Acute Food Intake 24 h 30 nmol/kg [% CTL] [1] [% CTL]
0.11 | 0.14 | 12.4 | 49.3 | 11 |  |  | CC[C@H](C)[C@H](NC(=O)[C@H](CC(C)C)NC(=O)[C@H](Cc1c[nH]c2ccccc12)NC(=O)[C@H](CCC(=O)O)NC(=O)[C@@H](NC(=O)[C@H](Cc1ccccc1)NC(=O)[C@H](C)NC(=O)C(C)(C)NC(=O)[C@H](CCC(N)=O)NC(=O)[C@H](C)NC(=O)[C@H](CCC(N)=O)NC(=O)[C@H](CCCCN)NC(=O)[C@H](CCC(=O)O)NC(=O)[C@H](CC(C)C)NC(=O)C(C)(C)NC(=O)[C@@H](NC(=O)[C@H](CO)NC(=O)[C@H](Cc1ccc(O)cc1)NC(=O)[C@H](CC(=O)O)NC(=O)[C@H](CO)NC(=O)[C@@H](NC(=O)[C@H](Cc1ccccc1)NC(=O)[C@@H](NC(=O)CNC(=O)[C@H](CCC(=O)O)NC(=O)C(C)(C)NC(=O)[C@@H](N)Cc1ccc(O)cc1)[C@@H](C)O)[C@@H](C)O)[C@@H](C)CC)C(C)C)C(=O)N[C@@H](CCCCNC(=O)[C@@H](N)CCCCNC(=O)CC[C@H](NC(=O)CC[C@H](NC(=O)CC[C@H](NC(=O)CC[C@H](NC(=O)CC[C@H](NC(=O)CC[C@H](NC(=O)CCCCCCCCCCCCCCCCCCC(=O)O)C(=O)O)C(=O)O)C(=O)O)C(=O)O)C(=O)O)C(=O)O)C(=O)NCC(=O)NCC(=O)N1CCC[C@H]1C(=O)N[C@@H](CO)C(=O)N[C@@H](CO)C(=O)NCC(=O)N[C@@H](C)C(=O)N[C@@H](CO)C(=O)N[C@@H](CC(C)C)C(=O)N[C@@H](CCCNC(=N)N)C(=O)N[C@@H](Cc1c[nH]cn1)C(=O)N[C@@H](Cc1ccc(O)cc1)C(=O)N[C@@H](Cc1ccc(O)cc1)C(=O)N[C@@H](CC(N)=O)C(=O)N[C@@H](Cc1c[nH]c2ccccc12)C(=O)N[C@@H](CC(C)C)C(=O)N[C@H](C(=O)N[C@@H](CCCNC(=N)N)C(=O)N[C@@H](CCC(N)=O)C(=O)N[C@@H](CCCNC(=N)N)C(=O)N[C@@H](Cc1ccc(O)cc1)C(N)=O)[C@@H](C)O [Compound 221, Y-Aib-E-G-T-F-T-S-D-Y-S-I-Aib-L-E-K-Q-A-Q-Aib-A-F-V-E-W-L-I-K(1,3)-GGPSSGASLRHYYNWLTRQRY-NH2.C20DA-gGlu-gGlu-gGlu-gGlu-gGlu-gGlu-eLys(1,2)] | 51
0.09 | 0.22 | 10.7 | 29.3 | 8.4 | 2.55 | 0.91 | CC[C@H](C)[C@H](NC(=O)[C@H](CC(C)C)NC(=O)[C@H](Cc1c[nH]c2ccccc12)NC(=O)[C@H](CCC(=O)O)NC(=O)[C@@H](NC(=O)[C@H](Cc1ccccc1)NC(=O)[C@H](C)NC(=O)C(C)(C)NC(=O)[C@H](CCC(N)=O)NC(=O)[C@H](C)NC(=O)[C@H](CCC(N)=O)NC(=O)[C@H](CCCCN)NC(=O)[C@H](CCC(=O)O)NC(=O)[C@H](CC(C)C)NC(=O)C(C)(C)NC(=O)[C@@H](NC(=O)[C@H](CO)NC(=O)[C@H](Cc1ccc(O)cc1)NC(=O)[C@H](CC(=O)O)NC(=O)[C@H](CO)NC(=O)[C@@H](NC(=O)[C@H](Cc1ccccc1)NC(=O)[C@@H](NC(=O)CNC(=O)[C@H](CCC(=O)O)NC(=O)C(C)(C)NC(=O)[C@@H](N)Cc1ccc(O)cc1)[C@@H](C)O)[C@@H](C)O)[C@@H](C)CC)C(C)C)C(=O)N[C@@H](CCCCNC(=O)[C@@H](N)CCCCNC(=O)CC[C@H](NC(=O)CC[C@H](NC(=O)CC[C@H](NC(=O)CC[C@H](NC(=O)CC[C@H](NC(=O)CC[C@H](NC(=O)CCCCCCCCCCCCCCCCC(=O)O)C(=O)O)C(=O)O)C(=O)O)C(=O)O)C(=O)O)C(=O)O)C(=O)NCC(=O)NCC(=O)N1CCC[C@H]1C(=O)N[C@@H](CO)C(=O)N[C@@H](CO)C(=O)NCC(=O)N[C@@H](C)C(=O)N[C@@H](CO)C(=O)N[C@@H](CC(C)C)C(=O)N[C@@H](CCCNC(=N)N)C(=O)N[C@@H](Cc1c[nH]cn1)C(=O)N[C@@H](Cc1ccc(O)cc1)C(=O)N[C@@H](Cc1ccc(O)cc1)C(=O)N[C@@H](CC(N)=O)C(=O)N[C@@H](Cc1c[nH]c2ccccc12)C(=O)N[C@@H](CC(C)C)C(=O)N[C@H](C(=O)N[C@@H](CCCNC(=N)N)C(=O)N[C@@H](CCC(N)=O)C(=O)N[C@@H](CCCNC(=N)N)C(=O)N[C@@H](Cc1ccc(O)cc1)C(N)=O)[C@@H](C)O [Compound 259, Y-Aib-E-G-T-F-T-S-D-Y-S-I-Aib-L-E-K-Q-A-Q-Aib-A-F-V-E-W-L-I-K(1,3)-GGPSSGASLRHYYNWLTRQRY-NH2.C18DA-gGlu-gGlu-gGlu-gGlu-gGlu-gGlu-eLys(1,2)] | 36
0.17 | 0.29 | 10.2 | 42.6 | 12.1 |  | 1.83 | CC[C@H](C)[C@H](NC(=O)[C@H](CC(C)C)NC(=O)[C@H](Cc1c[nH]c2ccccc12)NC(=O)[C@H](CCC(N)=O)NC(=O)[C@@H](NC(=O)[C@H](Cc1ccccc1)NC(=O)[C@H](C)NC(=O)C(C)(C)NC(=O)[C@H](CCC(N)=O)NC(=O)[C@H](C)NC(=O)[C@H](CCC(N)=O)NC(=O)[C@H](CCCCN)NC(=O)[C@H](CCC(=O)O)NC(=O)[C@H](CC(C)C)NC(=O)C(C)(C)NC(=O)[C@@H](NC(=O)[C@H](CO)NC(=O)[C@H](Cc1ccc(O)cc1)NC(=O)[C@H](CC(=O)O)NC(=O)[C@H](CO)NC(=O)[C@@H](NC(=O)[C@H](Cc1ccccc1)NC(=O)[C@@H](NC(=O)CNC(=O)[C@H](CCC(=O)O)NC(=O)C(C)(C)NC(=O)[C@@H](N)Cc1ccc(O)cc1)[C@@H](C)O)[C@@H](C)O)[C@@H](C)CC)C(C)C)C(=O)N[C@@H](CCCCNC(=O)[C@@H](N)CCCCNC(=O)CC[C@H](NC(=O)CC[C@H](NC(=O)CC[C@H](NC(=O)CC[C@H](NC(=O)CC[C@H](NC(=O)CC[C@H](NC(=O)CCCCCCCCCCCCCCCCCCC(=O)O)C(=O)O)C(=O)O)C(=O)O)C(=O)O)C(=O)O)C(=O)O)C(=O)NCC(=O)NCC(=O)N1CCC[C@H]1C(=O)N[C@@H](CO)C(=O)N[C@@H](CCC(=O)O)C(=O)NCC(=O)N[C@@H](C)C(=O)N[C@@H](CO)C(=O)N[C@@H](CC(C)C)C(=O)N[C@@H](CCCNC(=N)N)C(=O)N[C@@H](Cc1c[nH]cn1)C(=O)N[C@@H](Cc1ccc(O)cc1)C(=O)N[C@@H](Cc1ccc(O)cc1)C(=O)N[C@@H](CC(N)=O)C(=O)N[C@@H](Cc1c[nH]c2ccccc12)C(=O)N[C@@H](CC(C)C)C(=O)N[C@H](C(=O)N[C@@H](CCCNC(=N)N)C(=O)N[C@@H](CCC(N)=O)C(=O)N[C@@H](CCCNC(=N)N)C(=O)N[C@@H](Cc1ccc(O)cc1)C(N)=O)[C@@H](C)O [Compound 220, Y-Aib-E-G-T-F-T-S-D-Y-S-I-Aib-L-E-K-Q-A-Q-Aib-A-F-V-Q-W-L-I-K(1,3)-GGPSEGASLRHYYNWLTRQRY-NH2.C20DA-gGlu-gGlu-gGlu-gGlu-gGlu-gGlu-eLys(1,2)] | 45
